These results are taken from patent US20230138400A1, “METHODS AND PHARMACEUTICAL COMPOSITIONS FOR REPROGRAMING IMMUNE ENVIRONMENT IN A SUBJECT IN NEED THEREOF” (INSERM (INSTITUT NATIONAL DE LA SANTE ET DE LA RECHERCHE …, priority 2016, published 2023).

In test [1] the test system is Unpolarized Th0 (from naive CD4 T cells of C57BL/6 mice). The experiment in a line: Unpolarized Th0 cells cultured with DDA, flow cytometry. It is filed as cell-based, mouse. The method, then: FIGS. 3A-D. Unpolarized Th0 (prepared from naive CD4 T cells isolated from the spleen of C57BL/6 mice were cultivated in presence of anti-CD3, anti-CD28 and recombinant IL-2 as indicated in the “Materials and methods” section”) and with gradual concentration of DDA added at day 0 of culture (condition #1) or Day 4 of culture (condition #2). At the end, for each condition, the percentage of Th1 (CD4+Tbet+IFNg+) (A,B) and Treg CD4+Foxp3+IL10+ (C,D) was measured by flow cytometry.
Immune cell culture. Isolated CD4+ or CD8+ T cells were cultures in 96-well flat bottom plates (0.25×10^6 cells per wells) in 0.25 ml of complete RPMI 1640 media (10% FBS, 1% penicillin/Streptomycin, 1% sodium pyruvate, 1% HEPES and 50 μM b-mercaptoethanol) in the presence of 10 μg/ml plate-bound anti-mouse CD3 (2C11) and 2 μg/ml soluble α-CD28 (LEAF) in addition to 50 ng/ml of recombinant IL-2 (e-bioscience). DDA (synthesized by Affichem) diluted in the solvent vehicle was added at increasing concentration (0-1-10-100 and 1000 nM). […] After 5 days of culture, cells were collected and analyzed by flow cytometry. To investigate the impact of DDA on polarization of CD4 or CD8 naive T cells, DDA or the solvent vehicle was added at the beginning of culture at Day 0 or at Day 4 and cells was analyzed at day 5 by flow cytometry.

Test [2] has as its system E0771 sh control or E0771 sh LXR tumors. The experiment in a line: Tumor growth and survival, E0771 sh control or E0771 sh LXR tumors, DDA treatment. Format: in vivo, mouse. The protocol: FIGS. 13A-B. Tumor growth analysis (A) Exponentially growing E0771 sh control or E0771 sh LXR cells were collected, washed twice in PBS and resuspended in PBS (300,000 cells in 100 μl PBS). […] mice were grafted subcutaneously with 300 000 E0771 sh control or E0771 sh LXR tumor cells. […] At day 15 of treatment with DDA or the solvent vehicle, the tumors were removed and the immune cells infiltrated into the tumors were analyzed by flow cytometry (see FIG. 14).
FIGS. 16A-C. The control of tumor growth and the increase in animal survival upon DDA treatment are dependent on the LXRβ expressed in tumor cells. […] The animals were monitored over time for (A) tumor growth and (B) animal survival. (C) Tumor weights were measured at the end of the experiment.

A further test has as its system B16F10 cells. Put plainly: Multivesicular bodies and exosome secretion of B16F10 cells treated with DDA. It is filed as cell-based, mouse.
In a further test the test system is SKMEL-28 cells. Put plainly: Composition of exosomes from SKMEL-28 cells (shCTRL or shLXRbeta) treated with DDA. It is filed as cell-based, human. The protocol: Exosome characterization. By flow cytometry: (tetraspanin analysis), exosomes (10 μg) were bound onto 10 μl of latex beads (Interfacial Dynamics/Invitrogen) in 200 μl PBS for 1 hour at 25° C. with gentle periodical shaking. Free sites on latex beads were saturated with 100 μl vesicle-free FBS for 30 min at 25° C. Beads with bound exosomes were centrifuged for 5 min at 5000 rpm, washed in 200 μl PBS, and diluted in 100 μl FACS buffer. Specific primary antibody or control isotype (1:50) were added and incubated at room temperature for 30 min. After centrifugation and washing, secondary antibody (1:100) was added and incubated for 30 min at room temperature. Beads with bound antibody-labelled exosomes were diluted in 1 ml FACS buffer and analyzed by flow cytometry (FACScalibur, Becton-Dickinson). By western-blot analysis: 5-20 μg exosomes were directly diluted in sample buffer and denaturated by heating at 60° C. for 10 min. Equal amounts of proteins were deposited in each well and proteins were resolved in SDS-PAGE and transferred onto PVDF membranes, saturated with 5% w/v non-fat milk in TBS-Tween 0.1%. […] Revelation from immunoblotting was performed by enhanced chemiluminescence and analysed by ChemiDoc imager (BioRad) or by Pxi imager (Ozyme). By sucrose gradient: the density of exosomes was measured through a sucrose gradient. […]

Test [3] relates to Bone marrow of WT or LXRαβKO mice. Put plainly: Bone marrow dendritic cell differentiation (GM-CSF) from WT or LXRαβKO mice in presence of DDA. It is filed as cell-based, mouse. The method, then: FIGS. 11A-B. Bone marrow was isolated from the tibia and femur of WT or LXRαβKO mice and cultivated with 20 ng/ml GM-CSF and in presence of increasing concentrations of DDA. At day 3 and 5 half of medium was replaced by fresh medium containing GM-CSF. After 7 days of culture, the percentage of (A) differentiated CD11c+CD8a dendritic cell (B) mature CD11c+CD8a+ dendritic cells (CD11c+CD8a+CD86hi CCR7hi) was measured by flow cytometry and expressed relative to the control.
FIG. 12. Bone marrow was isolated from the tibia and femur of WT or LXRαβKO mice and cultivated with 20 ng/ml GM-CSF and in presence of increasing concentrations of DDA. At day 3 and 5 half of medium was replaced by fresh medium containing GM-CSF. After 7 days of culture, the mean of florescence (MFI) of MHC class II expressed on the surface of CD11c dendritic cells: CD11c+H2db+ was measured by flow cytometry and expressed relative to the control.

[4] abbreviates: E0771 expressing LXRβ, 0.37 μg/kg DDA IP every two days (FIG. 16).
Setting [5] is: WT, 7 days of culture (FIG. 11).

`CC(C)CCCC(C)[C@H]1CCC2C3C[C@@H](NCCc4cnc[nH]4)[C@@]4(O)C[C@@H](O)CC[C@]4(C)C3CC[C@@]21C` (stereo partly drawn) [DDA, 5a-hydroxy-6b-[2-(1H-imidazol-4-yl)ethylamino]cholestan-3b-ol]: the “Th0 into Th1 differentiation” value in test [1] (unpolarized Th0, DDA at day 0 or day 4 (FIG. 3)) is “does not activated”. Further, in test [1] (unpolarized Th0, DDA at day 0 or day 4, more impressive at day 4 (FIG. 3)), the “differentiation of Th0 into Treg phenotype” value was “inhibits”. In addition, in test [2] (setting [4]), the animal survival result was “increases animal survival” and the tumor growth entry was “inhibits tumor growth”. In test [2] (E0771 sh LXR, 0.37 μg/kg DDA every 2 days (FIG. 13)), the “effect on growth of tumors” value is reported as “abolished”. For the same compound, in test [2] (E0771 sh control, 0.37 μg/kg DDA every 2 days (FIG. 13)), the growth of tumors entry is on record as “significantly controls the growth”. Also, the “production of exosome secreted into the media” value in the test with B16F10 cells (data not shown) was in the range of 1.5 to 2 fold. Further, in the test on B16F10 cells (electronic microscopy), the “amount of multivesicular bodies (MVB)” value is “stimulates”. Besides, the “exosome content of rab27a and b, HSP70, Melan A, tyrosinase, TRP2, calreticuline” value in the test on SKMEL-28 cells (exosomes from SKMEL-28-shCTRL cells) is given as “enriched”. Moreover, in the test on SKMEL-28 cells (exosomes from SKMEL-28-shLXRbeta cells), the “exosome content of rab27a and b, HSP70, Melan A, tyrosinase, TRP2, calreticuline” value is listed as “not enriched”. In test [3] (1 μM DDA, WT (FIG. 12)), the “MHC II expression at the surface of CD11c dendritic cells” value is listed as “increases”. Also, in test [3] (setting [5]), the “differentiation of CD11c into CD11c CD8a+ dendritic cells” value is listed as “increases” and the “maturation of CD11c CD8a+ dendritic cells (CD86hi CCR7hi)” value is reported as “increases”. For the same compound, in test [3] (in absence of LXR (LXRαβKO)), the “effect on MHC II expression at the surface of CD11c dendritic cells” value was “abrogated”; the “effect on differentiation and maturation of CD11c CD8a+ dendritic cells” value is reported as “abolished”.
